Numbers after ± are expanded uncertainties.
Conditions: Liquid, Vibrating tube method

c1ccccc1 [benzene]
mass density [kg/m3]
Conditions | 298.15 K | 308.15 K | 318.15 K | 328.15 K
100 kPa | 873.5 ± 0.2 | 862.9 ± 0.2 | 852.3 ± 0.2 | 841.5 ± 0.2
2130 kPa | 875.1 ± 0.2 | 864.7 ± 0.2 | 854.2 ± 0.2 | 843.6 ± 0.2
4150 kPa | 876.7 ± 0.2 | 866.4 ± 0.2 | 856.1 ± 0.2 | 845.6 ± 0.2
6180 kPa | 878.4 ± 0.2 | 868.2 ± 0.2 | 857.9 ± 0.2 | 847.5 ± 0.2
8210 kPa | 879.9 ± 0.2 | 869.9 ± 0.2 | 859.7 ± 0.2 | 849.5 ± 0.3
10230 kPa | 881.5 ± 0.2 | 871.6 ± 0.3 | 861.5 ± 0.3 | 851.3 ± 0.3
11250 kPa | 882.3 ± 0.2 | 872.4 ± 0.3 | 862.4 ± 0.3 | 852.3 ± 0.3
12260 kPa | 883.1 ± 0.3 | 873.2 ± 0.3 | 863.2 ± 0.3 | 853.2 ± 0.3
14290 kPa | 884.6 ± 0.3 | 874.8 ± 0.3 | 865 ± 0.3 | 855 ± 0.3
16310 kPa | 886.1 ± 0.3 | 876.4 ± 0.3 | 866.6 ± 0.3 | 856.8 ± 0.3
18340 kPa | 887.6 ± 0.3 | 878 ± 0.3 | 868.3 ± 0.3 | 858.6 ± 0.3
20370 kPa | 889.1 ± 0.3 | 879.5 ± 0.3 | 869.9 ± 0.3 | 860.3 ± 0.3
22390 kPa | 890.5 ± 0.3 | 881.1 ± 0.3 | 871.6 ± 0.3 | 862 ± 0.3
24420 kPa | 892 ± 0.3 | 882.6 ± 0.3 | 873.2 ± 0.3 | 863.7 ± 0.3
26450 kPa | 893.4 ± 0.3 | 884 ± 0.3 | 874.7 ± 0.3 | 865.3 ± 0.3
28470 kPa | 894.7 ± 0.3 | 885.5 ± 0.3 | 876.2 ± 0.3 | 866.9 ± 0.3
29490 kPa | 895.4 ± 0.3 | 886.2 ± 0.3 | 877 ± 0.3 | 867.8 ± 0.3
30500 kPa | 896.1 ± 0.3 | 886.9 ± 0.3 | 877.8 ± 0.3 | 868.6 ± 0.3
32530 kPa | 897.5 ± 0.3 | 888.4 ± 0.3 | 879.2 ± 0.3 | 870.1 ± 0.3
34550 kPa | 898.8 ± 0.3 | 889.7 ± 0.3 | 880.7 ± 0.3 | 871.7 ± 0.3
36580 kPa | 900.1 ± 0.3 | 891.1 ± 0.3 | 882.1 ± 0.3 | 873.1 ± 0.3
38600 kPa | 901.4 ± 0.3 | 892.5 ± 0.3 | 883.6 ± 0.3 | 874.7 ± 0.3
39620 kPa | 902 ± 0.3 | 893.2 ± 0.3 | 884.3 ± 0.3 | 875.4 ± 0.3

CCCCCCCC [octane]
mass density [kg/m3]
Conditions | 298.15 K | 308.15 K | 318.15 K | 328.15 K
100 kPa | 698.7 ± 0.3 | 690.8 ± 0.3 | 682.8 ± 0.3 | 674.5 ± 0.3
2130 kPa | 700.4 ± 0.3 | 692.6 ± 0.3 | 684.7 ± 0.3 | 676.6 ± 0.3
4150 kPa | 702.2 ± 0.3 | 694.4 ± 0.3 | 686.7 ± 0.3 | 678.7 ± 0.3
6180 kPa | 703.8 ± 0.3 | 696.2 ± 0.3 | 688.6 ± 0.3 | 680.7 ± 0.3
8210 kPa | 705.4 ± 0.3 | 698 ± 0.3 | 690.4 ± 0.3 | 682.6 ± 0.3
10230 kPa | 707 ± 0.3 | 699.7 ± 0.3 | 692.2 ± 0.3 | 684.6 ± 0.3
11250 kPa | 707.8 ± 0.3 | 700.5 ± 0.3 | 693.1 ± 0.4 | 685.5 ± 0.4
12260 kPa | 708.6 ± 0.4 | 701.3 ± 0.4 | 694 ± 0.4 | 686.4 ± 0.4
14290 kPa | 710.1 ± 0.4 | 703 ± 0.4 | 695.7 ± 0.4 | 688.3 ± 0.4
16310 kPa | 711.7 ± 0.4 | 704.5 ± 0.4 | 697.4 ± 0.4 | 690.1 ± 0.4
18340 kPa | 713.1 ± 0.4 | 706.1 ± 0.4 | 699.1 ± 0.4 | 691.8 ± 0.4
20370 kPa | 714.6 ± 0.4 | 707.6 ± 0.4 | 700.7 ± 0.4 | 693.6 ± 0.4
22390 kPa | 715.9 ± 0.4 | 709.1 ± 0.4 | 702.3 ± 0.4 | 695.2 ± 0.5
24420 kPa | 717.4 ± 0.4 | 710.6 ± 0.5 | 703.9 ± 0.5 | 696.9 ± 0.5
26450 kPa | 718.8 ± 0.5 | 712 ± 0.5 | 705.4 ± 0.5 | 698.5 ± 0.5
28470 kPa | 720.1 ± 0.5 | 713.4 ± 0.5 | 706.9 ± 0.5 | 700 ± 0.5
29490 kPa | 720.8 ± 0.5 | 714.1 ± 0.5 | 707.6 ± 0.5 | 700.8 ± 0.5
30500 kPa | 721.4 ± 0.5 | 714.8 ± 0.5 | 708.3 ± 0.5 | 701.6 ± 0.5
32530 kPa | 722.7 ± 0.5 | 716.2 ± 0.5 | 709.7 ± 0.5 | 703 ± 0.6
34550 kPa | 724 ± 0.5 | 717.5 ± 0.6 | 711.2 ± 0.6 | 704.5 ± 0.6
36580 kPa | 725.3 ± 0.6 | 718.8 ± 0.6 | 712.5 ± 0.6 | 706 ± 0.6
38600 kPa | 726.5 ± 0.6 | 720.2 ± 0.6 | 713.9 ± 0.6 | 707.4 ± 0.6
39620 kPa | 727.1 ± 0.6 | 720.8 ± 0.6 | 714.6 ± 0.6 | 708.1 ± 0.6

— the NIST ThermoML archive (doi:10.1016/j.jct.2007.11.009)
